The results in this text go back to patent US20090042874A1, “ANTIDEPRESSANT HETEROARYL DERIVATIVES OF HETEROCYCLE-FUSED BENZODIOXANS” (WYETH, priority 2007, published 2009).

One data set has as its target T1, serotonin transporter (Rattus norvegicus, UniProt P31652).
T1 construct: displace ^3H-paroxetine from male rat frontal cortical membranes; from tissue; host or cells: male rat frontal cortex membranes
The data set can be described thus: Displacement of 3H-paroxetine from male rat frontal cortical membranes (serotonin transporter affinity). As to conditions: 3H-paroxetine displacement, read-out: 5-HT Transporter Affinity Ki. It counts as binding. An excerpt: Affinity of Compounds of the Invention for the Serotonin Transporter

The next data set addresses T2, human 5HT1A receptors (Homo sapiens, UniProt P08908).
T2 construct: expressed in transfected cells; host or cells: CHO cells
T2 sequence (P08908 1-422): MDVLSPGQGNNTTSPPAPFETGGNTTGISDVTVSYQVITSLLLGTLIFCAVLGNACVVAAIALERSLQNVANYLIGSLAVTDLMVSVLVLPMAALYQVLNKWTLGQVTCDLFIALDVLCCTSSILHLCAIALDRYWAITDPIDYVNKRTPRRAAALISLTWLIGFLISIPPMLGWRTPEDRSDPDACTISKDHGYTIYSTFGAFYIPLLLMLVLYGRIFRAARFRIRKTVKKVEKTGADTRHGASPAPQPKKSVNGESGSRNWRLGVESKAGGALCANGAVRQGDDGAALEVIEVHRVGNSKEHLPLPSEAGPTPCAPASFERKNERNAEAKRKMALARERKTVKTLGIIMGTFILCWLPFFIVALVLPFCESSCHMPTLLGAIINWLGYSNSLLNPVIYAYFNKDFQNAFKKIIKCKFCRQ
The data set can be described thus: Displacement of [3H] 8-OH-DPAT from 5HT1A receptor, CHO cells stably transfected with human 5HT1A receptors. It counts as binding. The note with it: [3H] 8-OH-DPAT displacement, CHO cells with human 5HT1A; read-out: 5HT1A Receptor Affinity Ki. An excerpt: High affinity for the serotonin 5HT1A receptor was established by testing the claimed compound's ability to displace [^3H] 8-OH-DPAT (dipropylamino-tetralin) from the 5HT1A serotonin receptor following a modification of the procedure of Hall et al., J. Neurochem. 44, 1685 (1985) which utilizes CHO cells stably transfected with human 5HT1A receptors.

pKi: −log10 of the molar value. Where a name gives a salt, the structure may show the parent alone.

T1 sequence (P31652 whole entry): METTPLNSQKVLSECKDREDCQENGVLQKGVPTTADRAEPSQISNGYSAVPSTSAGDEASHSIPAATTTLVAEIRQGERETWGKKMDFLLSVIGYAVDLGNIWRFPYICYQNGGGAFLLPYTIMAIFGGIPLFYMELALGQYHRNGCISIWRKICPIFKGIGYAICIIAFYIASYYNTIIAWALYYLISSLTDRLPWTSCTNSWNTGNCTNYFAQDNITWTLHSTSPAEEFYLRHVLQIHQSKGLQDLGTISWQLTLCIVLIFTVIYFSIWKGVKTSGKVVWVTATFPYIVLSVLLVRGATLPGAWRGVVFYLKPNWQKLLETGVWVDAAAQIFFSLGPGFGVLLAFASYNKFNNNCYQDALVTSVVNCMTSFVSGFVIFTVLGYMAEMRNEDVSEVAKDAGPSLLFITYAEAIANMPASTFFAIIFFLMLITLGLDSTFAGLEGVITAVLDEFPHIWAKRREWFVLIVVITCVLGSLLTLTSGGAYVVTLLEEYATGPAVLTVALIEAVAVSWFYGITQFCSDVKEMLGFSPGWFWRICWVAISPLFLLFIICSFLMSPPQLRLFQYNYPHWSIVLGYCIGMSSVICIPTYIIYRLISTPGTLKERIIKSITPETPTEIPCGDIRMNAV

Regarding `CNCCCCOc1ccc2c(c1)NC(=O)CO2` (as salt: hydrochloride) [Example 10, 6-[4-(Methylamino)butoxy]-2H-1,4-benzoxazin-3(4H)-one hydrochloride salt], the melting point was in the range of 210 to 212 °C.
As for `Cc1ccc2c3c(ccc2n1)OC[C@H](CN1CCC(CCc2ccc4c(c2)N(C)C(=O)CO4)CC1)O3` [Example 13, 4-Methyl-6-[2-(1-{[(2S)-8-methyl-2,3-dihydro[1,4]dioxino[2,3-f]quinolin-2-yl]methyl}piperidin-4-yl)ethyl]-2H-1,4-benzoxazin-3(4H)-one dihydrochloride salt], the negative logarithm of the Ki (pKi) on serotonin transporter was 7.86; on human 5HT1A receptors, 9.20.
With `Cc1ccc2c3c(ccc2n1)OC[C@H](CN1CCC(Oc2ccc4c(c2)N(C)C(=O)CO4)CC1)O3` (as salt: hydrochloride) [Example 5, 4-Methyl-6-[(1-{[(2S)-8-methyl-2,3-dihydro[1,4]dioxino[2,3-f]quinolin-2-yl]methyl}piperidin-4-yl)oxy]-2H-1,4-benzoxazin-3(4H)-one dihydrochloride salt], the melting point is 164 °C (dec.).
Regarding `Cc1ccc2c3c(ccc2n1)OC[C@H](CN1CCC(Cc2ccc4c(c2)N(C)C(=O)CO4)CC1)O3` [Example 12, 4-Methyl-6-[(1-{[(2S)-8-methyl-2,3-dihydro[1,4]dioxino[2,3-f]quinolin-2-yl]methyl}piperidin-4-yl)methyl]-2H-1,4-benzoxazin-3(4H)-one dihydrochloride salt], the pKi at serotonin transporter is 8.18; at human 5HT1A receptors it was 9.54.
In the case of `Cc1ccc2c3c(ccc2n1)OC[C@H](CN1CC[C@@H](Oc2ccc4c(c2)NC(=O)CO4)C1)O3` (as salt: hydrochloride) [Example 9, 6-{[(3R)-1-{[(2S)-8-Methyl-2,3-dihydro[1,4]dioxino[2,3-f]quinolin-2-yl]methyl}pyrrolidin-3-yl]oxy}-2H-1,4-benzoxazin-3(4H)-one dihydrochloride salt], the melting point is 183 °C (dec.).
Consider `Cc1ccc2c3c(ccc2n1)OC[C@H](CN1CCC(Cc2ccc4c(c2)NC(=O)CO4)CC1)O3` (as salt: hydrochloride) [Example 2, 6-[(1-{[(2S)-8-Methyl-2,3-dihydro[1,4]dioxino[2,3-f]quinolin-2-yl]methyl}piperidin-4-yl)methyl]-2H-1,4-benzoxazin-3(4H)-one dihydrochloride], for which the melting point is 215 °C (dec.).
In the case of `Cc1ccc2c3c(ccc2n1)OC[C@H](CN1CCC(Oc2ccc4c(c2)NC(=O)CO4)CC1)O3` (as salt: hydrochloride) [Example 1, 6-[(1-{[(2S)-8-methyl-2,3-dihydro[1,4]dioxino[2,3-f]quinolin-2-yl]methyl}piperidin-4-yl)oxy]-2H-1,4-benzoxazin-3(4H)-one dihydrochloride salt], the melting point is 216 to 219 °C (dec.).
As to `Cc1ccc2c3c(ccc2n1)OC[C@H](CN1CCC(CCc2ccc4c(c2)NC(=O)CO4)CC1)O3` [Example 14, 6-[2-(1-{[(2S)-8-Methyl-2,3-dihydro[1,4]dioxino[2,3-f]quinolin-2-yl]methyl}piperidin-4-yl)ethyl]-2H-1,4-benzoxazin-3(4H)-one dihydrochloride salt], the pKi at serotonin transporter is 8.58; on human 5HT1A receptors, 9.23.
As for `Cc1ccc2c3c(ccc2n1)OC[C@H](CNCCCOc1ccc2c(c1)NC(=O)CO2)O3` [Example 7, 6-[3-({[(2S)-8-Methyl-2,3-dihydro[1,4]dioxino[2,3-f]quinolin-2-yl]methyl}amino)propoxy]-2H-1,4-benzoxazin-3(4H)-one dihydrochloride salt], the negative logarithm of the Ki (pKi) at human 5HT1A receptors is 10.00.
Take `CNCCCOc1ccc2c(c1)NC(=O)CO2` [Example 11, 6-[3-(Methylamino)propoxy]-2H-1,4-benzoxazin-3(4H)-one]: the pKi on serotonin transporter was 7.09.
Turning to `Cc1ccc2c3c(ccc2n1)OC[C@H](CNC1CCN(c2ccc4c(c2)NC(=O)CO4)CC1)O3` (as salt: hydrochloride) [Example 18, 6-(4-{[(8-methyl-2,3-dihydro[1,4]dioxino[2,3-f]quinolin-2-yl)methyl]amino}piperidin-1-yl)-2H-1,4-benzoxazin-3(4H)-one dihydrochloride salt], the melting point is 240 °C (dec.).
Regarding `Cc1ccc2c3c(ccc2n1)OC[C@H](CN1CC[C@@H](Oc2ccc4c(c2)NC(=O)CO4)C1)O3` [Example 9, 6-{[(3R)-1-{[(2S)-8-Methyl-2,3-dihydro[1,4]dioxino[2,3-f]quinolin-2-yl]methyl}pyrrolidin-3-yl]oxy}-2H-1,4-benzoxazin-3(4H)-one dihydrochloride salt], the pKi on serotonin transporter was 8.35; on human 5HT1A receptors it was 8.45.
For `Cc1ccc2c3c(ccc2n1)OC[C@H](CN1CC[C@H](Oc2ccc4c(c2)NC(=O)CO4)C1)O3` [Example 8, 6-{[(3S)-1-{[(2S)-8-Methyl-2,3-dihydro[1,4]dioxino[2,3-f]quinolin-2-yl]methyl}pyrrolidin-3-yl]oxy}-2H-1,4-benzoxazin-3(4H)-one dihydrochloride salt] the same measures were 7.74 and 8.83.
The compound `CNCCCOc1ccc2c(c1)NC(=O)CO2` (as salt: hydrochloride) [Example 11, 6-[3-(Methylamino)propoxy]-2H-1,4-benzoxazin-3(4H)-one] displayed a melting point of 193 to 194 °C.
As to `CNCCCCOc1ccc2c(c1)NC(=O)CO2` [Example 10, 6-[4-(Methylamino)butoxy]-2H-1,4-benzoxazin-3(4H)-one hydrochloride salt], the negative logarithm of the Ki (pKi) at serotonin transporter is 7.23.
On to `Cc1ccc2c3c(ccc2n1)OC[C@H](CNCCCCOc1ccc2c(c1)NC(=O)CO2)O3` (as salt: hydrochloride) [Example 6, 6-[4-({[(2S)-8-Methyl-2,3-dihydro[1,4]dioxino[2,3-f]quinolin-2-yl]methyl}amino)butoxy]-2H-1,4-benzoxazin-3(4H)-one dihydrochloride salt], for which the melting point is 143 °C (dec.).
Still for that read-out and setting: the value for `Cc1ccc2c3c(ccc2n1)OC[C@H](CN1CCCC(Cc2ccc4c(c2)N(C)C(=O)CO4)C1)O3` (stereo partly drawn) (as salt: hydrochloride) [Example 15, 4-Methyl-6-[(1-{[(2S)-8-methyl-2,3-dihydro[1,4]dioxino[2,3-f]quinolin-2-yl]methyl}piperidin-3-yl)methyl]-2H-1,4-benzoxazin-3(4H)-one dihydrochloride salt] was 249 to 251 °C; that for `Cc1ccc2c3c(ccc2n1)OC[C@H](CN1CCCC(Cc2ccc4c(c2)NC(=O)CO4)C1)O3` (stereo partly drawn) (as salt: hydrochloride) [Example 16, 6-[(1-{[(2S)-8-Methyl-2,3-dihydro[1,4]dioxino[2,3-f]quinolin-2-yl]methyl}piperidin-3-yl)methyl]-2H-1,4-benzoxazin-3(4H)-one dihydrochloride salt] was 200 to 205 °C; that for `Cc1ccc2c3c(ccc2n1)OC[C@H](CN1CCC(Cc2ccc4c(c2)N(C)C(=O)CO4)CC1)O3` (as salt: hydrochloride) [Example 12, 4-Methyl-6-[(1-{[(2S)-8-methyl-2,3-dihydro[1,4]dioxino[2,3-f]quinolin-2-yl]methyl}piperidin-4-yl)methyl]-2H-1,4-benzoxazin-3(4H)-one dihydrochloride salt] was 205 to 208 °C.
The same measure, in the same setting: next, `Cc1ccc2c3c(ccc2n1)OC[C@H](CN1CCC(CCc2ccc4c(c2)N(C)C(=O)CO4)CC1)O3` (as salt: hydrochloride) [Example 13, 4-Methyl-6-[2-(1-{[(2S)-8-methyl-2,3-dihydro[1,4]dioxino[2,3-f]quinolin-2-yl]methyl}piperidin-4-yl)ethyl]-2H-1,4-benzoxazin-3(4H)-one dihydrochloride salt]: 185 to 189 °C.
On the same count and under the same terms, the value for `Cc1ccc2c3c(ccc2n1)OC[C@H](CN1CC[C@H](Oc2ccc4c(c2)NC(=O)CO4)C1)O3` (as salt: hydrochloride) [Example 8, 6-{[(3S)-1-{[(2S)-8-Methyl-2,3-dihydro[1,4]dioxino[2,3-f]quinolin-2-yl]methyl}pyrrolidin-3-yl]oxy}-2H-1,4-benzoxazin-3(4H)-one dihydrochloride salt] was 183 °C (dec.); that for `Cc1ccc2c3c(ccc2n1)OC[C@H](CN1CCC(CCc2ccc4c(c2)NC(=O)CO4)CC1)O3` (as salt: hydrochloride) [Example 14, 6-[2-(1-{[(2S)-8-Methyl-2,3-dihydro[1,4]dioxino[2,3-f]quinolin-2-yl]methyl}piperidin-4-yl)ethyl]-2H-1,4-benzoxazin-3(4H)-one dihydrochloride salt] was 202 to 205 °C.
For the compound `Cc1ccc2c3c(ccc2n1)OC[C@H](CNCCCOc1ccc2c(c1)NC(=O)CO2)O3` (as salt: hydrochloride) [Example 7, 6-[3-({[(2S)-8-Methyl-2,3-dihydro[1,4]dioxino[2,3-f]quinolin-2-yl]methyl}amino)propoxy]-2H-1,4-benzoxazin-3(4H)-one dihydrochloride salt], the melting point was 184 °C (dec.).
